Legend:
[1] = APCC in vivo screen: blood cholesterol in rats on high fat, high cholesterol diet with 0.5% cholic acid; set-up: species or system male Sprague-Dawley rats; conditions: 30 mg/kg single dose at 4 PM, high cholesterol diet overnight, blood at 8 AM, vehicle CMC/Tween
Description: In one in vivo screen designated APCC, male Sprague-Dawley rats (200 to 225 g) were randomly divided into treatment groups and dosed at 4 PM with either vehicle (CMC/Tween) or suspensions of compounds in vehicle (30 mg/kg). The normal chow diet was then replaced with a high fat, high cholesterol diet with 0.5% cholic acid. The rats consumed this diet ad libitum during the night and were sacrificed at 8 AM to obtain blood samples for cholesterol analysis using standard procedures. Statistical differences between mean cholesterol values for the same vehicle were determined using analysis of variance followed by Fisher's least significant test.

[2] = molecular target: T1, acyl-CoA: cholesterol acyltransferase (ACAT) (Oryctolagus cuniculus, UniProt G1SFD9); experiment: In vitro ACAT inhibition (IAI): formation of radiolabeled cholesterol oleate from radiolabeled oleic acid in rabbit intestinal microsomes; assay type: biochemical; conditions: concentration required to inhibit enzyme activity by 50%
T1 sequence (G1SFD9 1-524): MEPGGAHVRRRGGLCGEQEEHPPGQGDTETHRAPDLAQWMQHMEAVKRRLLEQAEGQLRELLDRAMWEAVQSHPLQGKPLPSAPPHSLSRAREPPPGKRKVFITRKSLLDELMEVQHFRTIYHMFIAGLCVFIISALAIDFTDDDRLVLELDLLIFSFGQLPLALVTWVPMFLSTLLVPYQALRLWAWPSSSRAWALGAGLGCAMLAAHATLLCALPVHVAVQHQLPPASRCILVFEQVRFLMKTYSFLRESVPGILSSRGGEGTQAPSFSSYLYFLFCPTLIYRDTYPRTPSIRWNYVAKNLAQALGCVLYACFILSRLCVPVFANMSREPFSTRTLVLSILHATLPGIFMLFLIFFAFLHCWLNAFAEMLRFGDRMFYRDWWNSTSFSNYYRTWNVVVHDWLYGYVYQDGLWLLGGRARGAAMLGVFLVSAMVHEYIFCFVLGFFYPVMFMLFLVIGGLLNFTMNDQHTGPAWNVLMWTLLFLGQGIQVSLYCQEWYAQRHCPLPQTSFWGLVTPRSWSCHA
Description: The ability of representative compounds of the present invention to inhibit ACAT was measured using an in vitro test more fully described in F. J. Field and R. G. Salone, Biochemica et Biophysica 712:557-570 (1982). The test assesses the ability of a test compound to inhibit the acylation of cholesterol by oleic acid by measuring the amount of radiolabeled cholesterol oleate formed from radiolabeled oleic acid in a tissue preparation containing rabbit intestinal microsomes.

Row | Structure (SMILES) | % Change (mg/dl) in cholesterol [1] [%] | IC50 [2] [µM]
1 | CCCCCCCCCCCCOS(=O)(=O)NC(=O)Nc1c(C(C)C)cccc1C(C)C.[Na] | -58 | –
2 | CCCCCCC(C)OS(=O)(=O)NC(=O)Nc1c(C(C)C)cccc1C(C)C (racemic) [Example 6, (±) 1-Methylheptyl [[[2,6-bis(1-methylethyl)phenyl]amino]carbonyl]sulfamate] | -43 | 8.7
3 | CCCCCCCCCCC(C)OS(=O)(=O)NC(=O)Nc1c(C(C)C)cccc1C(C)C (racemic) [Example 8, (±) 1-Methylundecyl [[[2,6-bis(1-methylethyl)phenyl]amino]carbonyl]sulfamate] | -68 | –
4 | CCCCCCOS(=O)(=O)NC(=O)Nc1c(C(C)C)cccc1C(C)C [Example 1, Hexyl [[[2,6-bis(1-methylethyl)phenyl]amino]carbonyl]sulfamate] | -56 | –
5 | CCCCCCCCCCCCCCCCCCOS(=O)(=O)NC(=O)Nc1c(C(C)C)cccc1C(C)C [Example 2, Octadecyl [[[2,6-bis(1-methylethyl)phenyl]amino]carbonyl]sulfamate] | -42 | –
6 | CCCCCCCCCCCCOS(=O)(=O)NC(=O)Nc1c(C(C)C)cccc1C(C)C [Example 3, Dodecyl [[[2,6-bis(1-methylethyl)phenyl]amino]carbonyl]sulfamate] | -75 | –
7 | CCCCCCCCCCOS(=O)(=O)NC(=O)Nc1c(C(C)C)cccc1C(C)C [Example 5, Decyl [[[2,6-bis(1-methylethyl)phenyl]amino]carbonyl]sulfamate] | -31 | > 10
8 | CC(C)c1cccc(C(C)C)c1NC(=O)NS(=O)(=O)Oc1c(C(C)C)cccc1C(C)C [Example 7, 2,6-bis(1-methylethyl)phenyl [[[2,6-bis (1-methylethyl)phenyl]amino]carbonyl]sulfamate] | -51 | 35
